Values joined by “and” are separate entries in the source; they are usually repeats but may differ in a detail not shown here. Equal entries are not always repeated.
Columns and labels:
[1] = Inhibition of Vibrio cholerae carbonic anhydrase beta preincubated for 15 mins by stopped-flow CO2 hydrase assay
[2] = Inhibition of Vibrio cholerae alpha carbonic anhydrase preincubated for 15 mins by stopped-flow CO2 hydrase assay
[3] = Inhibition of Helicobacter pylori alpha carbonic anhydrase preincubated for 15 mins by stopped-flow CO2 hydrase assay
Carbonic anhydrase 1 = Carbonic anhydrase 1 (Homo sapiens, UniProt P00915); assay: Inhibition of human carbonic anhydrase 1 preincubated for 15 mins by stopped-flow CO2 hydrase assay
Sequence of Carbonic anhydrase 1 (P00915 whole entry): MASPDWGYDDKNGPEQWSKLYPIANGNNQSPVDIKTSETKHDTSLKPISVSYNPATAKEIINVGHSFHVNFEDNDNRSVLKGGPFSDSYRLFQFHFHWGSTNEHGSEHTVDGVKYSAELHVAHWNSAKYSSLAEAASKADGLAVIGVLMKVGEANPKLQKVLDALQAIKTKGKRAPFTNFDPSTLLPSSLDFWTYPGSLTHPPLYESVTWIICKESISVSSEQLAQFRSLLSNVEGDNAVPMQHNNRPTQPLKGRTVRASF

| Structure (SMILES) | Ki [1] | Ki [2] | Ki [3] [µM] | Ki (Carbonic anhydrase 1) [µM] |
| --- | --- | --- | --- | --- |
| S [HYDROGEN SULFIDE] | 21300 µM | 74 µM |  |  |
| OB(O)c1ccccc1 [PHENYLBORONIC ACID] | 85 µM | 7 µM | 97 |  |
| F[B-](F)(F)F | > 200000 µM | > 200000 µM | > 200000 |  |
| O=[Te](=O)(O)O | 2300 µM | 14500 µM | 340 |  |
| Cl [HYDROCHLORIC ACID] | 8100 µM | 930 µM | 2700 |  |
| Br [BROMIDE] | 7400 µM | 28000 µM | 2410 |  |
| O=S(=O)(O)NS(=O)(=O)O | > 200000 µM | 88200 µM | 540 |  |
| [O-][Cl+3]([O-])([O-])O [PERCHLORATE] | > 200000 µM | > 200000 µM | 10100 |  |
| N#CO [CYANATE] | 7100 µM | 75 µM | 600 |  |
| N#CS [THIOCYANIC ACID] | 9500 µM | 820 µM | 4100 |  |
| O=S(O)O [SULFUROUS ACID] | > 200000 µM | 68 µM | 990 |  |
| N#C[SeH] | 5300 µM | 760 µM | 730 | 8.5 |
| O=C(O)O [BICARBONATE] | 5900 µM and 6700 µM | 4640 µM and 5130 µM |  |  |
| O=S(=O)(O)O [SULFURIC ACID] |  | 850 µM | 820 |  |
| NS(N)(=O)=O [SULFAMIDE] | 54 µM | 8 µM | 73 |  |
| S=C(S)S [CARBONOTRITHIOIC ACID] | 7000 µM | 88 µM | 380 |  |
| O=S(=O)(O)F | 8900 µM |  |  |  |
| O=[Se](=O)(O)O [SELENIC ACID] | 3400 µM | 60800 µM | 720 |  |
| O=NO [NITROUS ACID] | 9100 µM | 34100 µM | 930 |  |
| O=P(O)(O)OP(=O)(O)O [PYROPHOSPHORIC ACID] |  | 2960 µM | 660 |  |
| F [FLUORIDE ION] | 8700 µM | 800 µM | 4080 |  |
| I [IODIDE] | 9000 µM | 9730 µM | 6050 |  |
| NS(=O)(=O)O [SULFAMATE] | 86 µM | 31 µM | 80 |  |
| CCN(CC)C(=S)S [DITIOCARB] | 730 µM | 43 µM | 5 |  |
| O=S(=O)(O)OOS(=O)(=O)O | 3400 µM | 84100 µM | 920 |  |
| O=[N+]([O-])O | 8400 µM | 670 µM | 810 |  |
| [N-]=[N+]=[N-] | 20500 µM | 760 µM | 830 |  |
| O=[As](O)(O)c1ccccc1 [PHENYLARSONIC ACID] | 79 µM | 23 µM | 440 |  |

From ChEMBL document CHEMBL3813622, “Anion inhibition profiles of α-, β- and γ-carbonic anhydrases from the pathogenic bacterium Vibrio cholerae” (Bioorg Med Chem, 2016)
